In ChEMBL document CHEMBL2074244, “Loss of ATP-dependent transport activity in pseudoxanthoma elasticum-associated mutants of human ABCC6 (MRP6)” (J Biol Chem, 2002):

Assays:
Assay type in all cases: functional, cell membranes, Membrane vesicle
Design in all cases: scale not given: the % may be the effect or the level left
[1] = biological target: T1, MRP6 (ABCC6) (Homo sapiens, UniProt O95255); experiment: TP_TRANSPORTER: inhibition of NEM-GS in the presence of Indomethacin at a concentration of 100uM in membrane vesicles from MRP6-expressing Sf9 cells; details: probe NEM-GS, read-out: Activity
[2] = biological target: T1, MRP6 (ABCC6); experiment: TP_TRANSPORTER: inhibition of NEM-GS by Indomethacin at a concentration of 100uM in membrane vesicles from MRP6-expressing Sf9 cells; details: probe NEM-GS, read-out: Activity
[3] = biological target: T1, MRP6 (ABCC6); experiment: TP_TRANSPORTER: inhibition of NEM-GS in the presence of Probenecid at a concentration of 1mM in membrane vesicles from MRP6-expressing Sf9 cells; details: probe NEM-GS, read-out: Activity
[4] = biological target: MRP2 (ABCC2) (Homo sapiens, UniProt Q92887); experiment: TP_TRANSPORTER: inhibition of NEM-GS by Probenecid at a concentration of 1mM in membrane vesicles from MRP2-expressing Sf9 cells; details: probe NEM-GS, read-out: Activity
[5] = biological target: ATP-binding cassette sub-family C member 6 (Homo sapiens, UniProt O95255); experiment: TP_TRANSPORTER: inhibition of NEM-GS by Probenecid at a concentration of 1mM in membrane vesicles from MRP6-expressing Sf9 cells; details: sf9, 1000 µM
[6] = biological target: ATP-binding cassette sub-family C member 2 (Homo sapiens, UniProt Q92887); experiment: TP_TRANSPORTER: inhibition of NEM-GS by Benzbromarone at a concentration of 30uM in membrane vesicles from MRP2-expressing Sf9 cells; details: sf9, 30 µM
[7] = biological target: T1, MRP6 (ABCC6); experiment: TP_TRANSPORTER: inhibition of NEM-GS by Benzbromarone at a concentration of 30uM in membrane vesicles from MRP6-expressing Sf9 cells; details: probe NEM-GS, read-out: Activity
[8] = biological target: T1, MRP6 (ABCC6); experiment: TP_TRANSPORTER: inhibition of NEM-GS in the presence of Benzbromarone at a concentration of 30uM in membrane vesicles from MRP6-expressing Sf9 cells; details: probe NEM-GS, read-out: Activity

T1 sequence (O95255 whole entry): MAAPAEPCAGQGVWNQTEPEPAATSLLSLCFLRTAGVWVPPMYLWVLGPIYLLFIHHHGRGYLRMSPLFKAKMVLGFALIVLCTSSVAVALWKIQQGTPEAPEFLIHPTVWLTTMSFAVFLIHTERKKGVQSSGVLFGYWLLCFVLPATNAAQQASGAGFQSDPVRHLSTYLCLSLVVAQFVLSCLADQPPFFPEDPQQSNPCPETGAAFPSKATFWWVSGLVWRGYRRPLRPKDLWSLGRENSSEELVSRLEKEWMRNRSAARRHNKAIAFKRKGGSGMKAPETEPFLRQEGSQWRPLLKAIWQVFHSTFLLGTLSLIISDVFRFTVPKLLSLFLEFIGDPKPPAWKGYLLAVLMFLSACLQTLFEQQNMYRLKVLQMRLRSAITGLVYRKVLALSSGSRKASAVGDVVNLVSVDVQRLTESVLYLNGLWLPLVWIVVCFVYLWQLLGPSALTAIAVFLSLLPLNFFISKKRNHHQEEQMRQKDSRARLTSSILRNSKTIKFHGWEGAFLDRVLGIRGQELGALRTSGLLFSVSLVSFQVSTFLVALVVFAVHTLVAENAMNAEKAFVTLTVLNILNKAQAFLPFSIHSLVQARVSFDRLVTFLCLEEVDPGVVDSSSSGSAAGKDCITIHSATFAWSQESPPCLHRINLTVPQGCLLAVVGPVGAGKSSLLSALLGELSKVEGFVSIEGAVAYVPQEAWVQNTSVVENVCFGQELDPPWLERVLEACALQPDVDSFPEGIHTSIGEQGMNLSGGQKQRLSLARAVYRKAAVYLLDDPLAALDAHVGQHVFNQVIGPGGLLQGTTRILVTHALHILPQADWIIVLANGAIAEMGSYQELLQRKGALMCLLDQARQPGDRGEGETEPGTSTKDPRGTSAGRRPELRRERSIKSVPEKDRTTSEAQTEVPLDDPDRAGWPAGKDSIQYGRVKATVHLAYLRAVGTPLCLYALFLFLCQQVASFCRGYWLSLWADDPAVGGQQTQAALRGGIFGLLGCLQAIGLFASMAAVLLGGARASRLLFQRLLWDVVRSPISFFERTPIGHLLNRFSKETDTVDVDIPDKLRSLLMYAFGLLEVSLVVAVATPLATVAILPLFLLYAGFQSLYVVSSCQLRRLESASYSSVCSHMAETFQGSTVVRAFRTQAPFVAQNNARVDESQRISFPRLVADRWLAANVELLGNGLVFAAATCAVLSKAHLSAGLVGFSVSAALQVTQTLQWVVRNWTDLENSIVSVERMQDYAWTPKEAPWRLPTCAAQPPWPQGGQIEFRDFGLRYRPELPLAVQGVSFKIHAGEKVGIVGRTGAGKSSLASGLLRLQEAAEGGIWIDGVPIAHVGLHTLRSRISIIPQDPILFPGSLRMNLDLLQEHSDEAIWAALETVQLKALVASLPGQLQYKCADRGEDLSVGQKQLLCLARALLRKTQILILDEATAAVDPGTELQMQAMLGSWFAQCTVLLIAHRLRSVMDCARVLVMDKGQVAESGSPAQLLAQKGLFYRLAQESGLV
Sequence of ATP-binding cassette sub-family C member 2 (Q92887 whole entry): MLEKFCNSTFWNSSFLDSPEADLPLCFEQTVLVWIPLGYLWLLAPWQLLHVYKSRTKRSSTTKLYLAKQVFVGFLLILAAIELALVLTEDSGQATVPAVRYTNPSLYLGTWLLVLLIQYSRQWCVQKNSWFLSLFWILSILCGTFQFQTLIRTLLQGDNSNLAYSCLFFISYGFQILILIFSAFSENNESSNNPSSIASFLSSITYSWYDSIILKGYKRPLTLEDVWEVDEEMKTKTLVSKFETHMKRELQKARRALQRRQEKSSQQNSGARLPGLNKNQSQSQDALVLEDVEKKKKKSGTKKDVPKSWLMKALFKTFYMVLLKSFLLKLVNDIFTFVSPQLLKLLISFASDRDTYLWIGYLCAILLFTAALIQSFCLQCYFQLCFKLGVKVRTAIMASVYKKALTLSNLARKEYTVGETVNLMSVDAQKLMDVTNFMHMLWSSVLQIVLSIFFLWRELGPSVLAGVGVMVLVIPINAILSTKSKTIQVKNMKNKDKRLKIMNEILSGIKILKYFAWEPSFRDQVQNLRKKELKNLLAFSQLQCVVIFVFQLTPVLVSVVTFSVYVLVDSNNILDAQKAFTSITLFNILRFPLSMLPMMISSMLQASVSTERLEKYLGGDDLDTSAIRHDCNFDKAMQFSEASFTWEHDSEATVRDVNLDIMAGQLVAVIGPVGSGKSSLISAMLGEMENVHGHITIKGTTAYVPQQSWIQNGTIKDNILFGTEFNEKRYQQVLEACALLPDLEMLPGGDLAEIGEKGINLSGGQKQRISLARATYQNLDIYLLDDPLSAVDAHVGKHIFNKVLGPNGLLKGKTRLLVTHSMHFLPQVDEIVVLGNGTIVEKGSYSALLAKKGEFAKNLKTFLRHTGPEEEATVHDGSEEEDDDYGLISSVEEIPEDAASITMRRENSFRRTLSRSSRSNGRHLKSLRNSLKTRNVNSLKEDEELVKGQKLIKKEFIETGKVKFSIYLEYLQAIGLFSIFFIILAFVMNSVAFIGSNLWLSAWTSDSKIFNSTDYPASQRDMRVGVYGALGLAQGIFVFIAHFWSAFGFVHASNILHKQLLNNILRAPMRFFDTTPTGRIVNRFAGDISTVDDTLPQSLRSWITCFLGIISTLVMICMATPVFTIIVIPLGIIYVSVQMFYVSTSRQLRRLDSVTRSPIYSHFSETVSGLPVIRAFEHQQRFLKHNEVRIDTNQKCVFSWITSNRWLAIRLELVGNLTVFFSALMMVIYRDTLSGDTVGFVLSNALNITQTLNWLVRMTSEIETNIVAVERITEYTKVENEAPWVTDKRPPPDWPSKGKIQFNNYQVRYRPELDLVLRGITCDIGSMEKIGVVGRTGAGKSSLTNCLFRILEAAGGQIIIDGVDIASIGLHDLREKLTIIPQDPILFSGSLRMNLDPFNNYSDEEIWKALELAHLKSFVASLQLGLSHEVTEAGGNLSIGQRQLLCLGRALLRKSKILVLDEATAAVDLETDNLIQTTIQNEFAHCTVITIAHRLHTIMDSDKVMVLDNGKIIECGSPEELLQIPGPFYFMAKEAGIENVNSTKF
Sequence of MRP2 (ABCC2) (Q92887 whole entry): as above
Sequence of ATP-binding cassette sub-family C member 6 (O95255 whole entry): as the sequence (O95255 whole entry) above

## COc1ccc2c(c1)c(CC(=O)O)c(C)n2C(=O)c1ccc(Cl)cc1 [INDOMETHACIN]
[1]
  activity at 100 µM: 80%
[2]
  activity at 100 µM: 20%

## CCCN(CCC)S(=O)(=O)c1ccc(C(=O)O)cc1 [PROBENECID]
[3]
  activity at 1000 µM: 10%
[4]
  activity at 1000 µM: 20%
[5]
  Activity: 70%

## CCc1oc2ccccc2c1C(=O)c1cc(Br)c(O)c(Br)c1 [BENZBROMARONE]
[6]
  Activity: 0%
[7]
  activity at 30 µM: 0%
[8]
  activity at 30 µM: 0%
